These results are taken from patent US10906910B2, “Substituted bicyclic pyrimidine compounds with tubulin and multiple receptor inhibition” (Duquesne University of the Holy Spirit, priority 2014, dated 2021).

Molecules are shown by their SMILES.

Type in all cases: cell-based
The target in one experiment is PDGFRβ (Homo sapiens, UniProt P09619). Briefly: PDGFRβ kinase inhibition, whole-cell assay.
For another experiment, the target named is EGFR (Homo sapiens, UniProt P00533). The experiment can be described thus: EGFR kinase inhibition, whole-cell assay. The note with it: read-out: kinase inhibition IC50 [whole-cell assays] EGFR.
In the next experiment the test system is CCRF-CEM. Briefly: NCI 60 panel, Leukemia CCRF-CEM. The note with it: Homo sapiens, read-out: Tumor cell inhibitory activity (NCI) GI50.
For the next experiment, the system named is HL-60(TB). The experiment can be described thus: NCI 60 panel, Leukemia HL-60(TB). The note with it: Homo sapiens, read-out: Tumor cell inhibitory activity (NCI) GI50.
A further experiment relates to RPMI-8226. Briefly: NCI 60 panel, Leukemia RPMI-8226. Conditions: Homo sapiens, read-out: Tumor cell inhibitory activity (NCI) GI50.
A further experiment deals with SR. Briefly: NCI 60 panel, Leukemia SR. Conditions: Homo sapiens, read-out: Tumor cell inhibitory activity (NCI) GI50.
Another experiment relates to NCI-H322M. The experiment can be described thus: NCI 60 panel, NSCLC NCI-H322M. Conditions: Homo sapiens, read-out: Tumor cell inhibitory activity (NCI) GI50.
Another experiment deals with SW-620. The experiment can be described thus: NCI 60 panel, Colon Cancer SW-620. Conditions: Homo sapiens, read-out: Tumor cell inhibitory activity (NCI) GI50.
The test system of another experiment is MALME-3M. The experiment can be described thus: NCI 60 panel, Melanoma MALME-3M. Conditions: Homo sapiens, read-out: Tumor cell inhibitory activity (NCI) GI50.
The test system of a further experiment is OVCAR-5. Briefly: NCI 60 panel, Ovarian cancer OVCAR-5. The note with it: Homo sapiens, read-out: Tumor cell inhibitory activity (NCI) GI50.
The next experiment has as its system NCI/ADR-RES. Briefly: NCI 60 panel, Ovarian cancer NCI/ADR-RES. Conditions: Homo sapiens, read-out: Tumor cell inhibitory activity (NCI) GI50.
A further experiment has as its system ACHN. The experiment can be described thus: NCI 60 panel, Renal Cancer ACHN. The note with it: Homo sapiens, read-out: Tumor cell inhibitory activity (NCI) GI50.
Another experiment relates to MDA-MB-231/ATCC. Briefly: NCI 60 panel, Breast Cancer MDA-MB-231/ATCC. The note with it: Homo sapiens, read-out: Tumor cell inhibitory activity (NCI) GI50.
Another experiment has as its system MDA-MB-468. Briefly: NCI 60 panel, Breast Cancer MDA-MB-468. The note with it: Homo sapiens, read-out: Tumor cell inhibitory activity (NCI) GI50.

Chain of PDGFRβ (P09619 33-1106, species assumed): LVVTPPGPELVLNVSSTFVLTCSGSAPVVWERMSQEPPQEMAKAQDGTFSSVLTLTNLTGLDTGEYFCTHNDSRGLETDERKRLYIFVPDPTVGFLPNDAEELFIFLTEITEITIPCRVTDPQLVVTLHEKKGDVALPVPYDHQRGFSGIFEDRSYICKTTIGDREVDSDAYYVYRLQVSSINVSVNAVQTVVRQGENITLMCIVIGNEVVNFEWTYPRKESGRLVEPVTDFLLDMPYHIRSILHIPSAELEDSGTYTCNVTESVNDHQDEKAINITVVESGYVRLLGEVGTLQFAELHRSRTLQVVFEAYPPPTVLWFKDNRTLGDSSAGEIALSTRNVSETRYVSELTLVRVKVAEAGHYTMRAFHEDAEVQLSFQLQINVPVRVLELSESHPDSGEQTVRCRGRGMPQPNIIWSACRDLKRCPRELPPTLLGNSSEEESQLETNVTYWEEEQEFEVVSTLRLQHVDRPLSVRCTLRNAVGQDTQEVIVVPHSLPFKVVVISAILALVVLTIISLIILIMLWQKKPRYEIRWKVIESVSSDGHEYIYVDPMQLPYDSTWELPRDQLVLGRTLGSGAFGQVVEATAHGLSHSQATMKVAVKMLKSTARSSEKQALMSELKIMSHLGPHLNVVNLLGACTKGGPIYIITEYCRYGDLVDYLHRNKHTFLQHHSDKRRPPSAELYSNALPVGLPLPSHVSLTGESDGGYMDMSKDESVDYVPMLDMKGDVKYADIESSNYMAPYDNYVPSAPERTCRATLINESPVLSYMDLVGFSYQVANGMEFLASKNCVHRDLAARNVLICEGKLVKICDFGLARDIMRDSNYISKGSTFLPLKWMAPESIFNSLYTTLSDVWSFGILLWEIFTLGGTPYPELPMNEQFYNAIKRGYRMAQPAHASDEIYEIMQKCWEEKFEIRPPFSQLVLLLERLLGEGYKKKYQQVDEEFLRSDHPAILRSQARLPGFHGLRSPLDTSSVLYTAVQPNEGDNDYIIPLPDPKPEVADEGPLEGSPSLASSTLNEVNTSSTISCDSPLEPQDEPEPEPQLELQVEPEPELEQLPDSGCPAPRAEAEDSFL
Chain of EGFR (P00533 25-1210, species assumed): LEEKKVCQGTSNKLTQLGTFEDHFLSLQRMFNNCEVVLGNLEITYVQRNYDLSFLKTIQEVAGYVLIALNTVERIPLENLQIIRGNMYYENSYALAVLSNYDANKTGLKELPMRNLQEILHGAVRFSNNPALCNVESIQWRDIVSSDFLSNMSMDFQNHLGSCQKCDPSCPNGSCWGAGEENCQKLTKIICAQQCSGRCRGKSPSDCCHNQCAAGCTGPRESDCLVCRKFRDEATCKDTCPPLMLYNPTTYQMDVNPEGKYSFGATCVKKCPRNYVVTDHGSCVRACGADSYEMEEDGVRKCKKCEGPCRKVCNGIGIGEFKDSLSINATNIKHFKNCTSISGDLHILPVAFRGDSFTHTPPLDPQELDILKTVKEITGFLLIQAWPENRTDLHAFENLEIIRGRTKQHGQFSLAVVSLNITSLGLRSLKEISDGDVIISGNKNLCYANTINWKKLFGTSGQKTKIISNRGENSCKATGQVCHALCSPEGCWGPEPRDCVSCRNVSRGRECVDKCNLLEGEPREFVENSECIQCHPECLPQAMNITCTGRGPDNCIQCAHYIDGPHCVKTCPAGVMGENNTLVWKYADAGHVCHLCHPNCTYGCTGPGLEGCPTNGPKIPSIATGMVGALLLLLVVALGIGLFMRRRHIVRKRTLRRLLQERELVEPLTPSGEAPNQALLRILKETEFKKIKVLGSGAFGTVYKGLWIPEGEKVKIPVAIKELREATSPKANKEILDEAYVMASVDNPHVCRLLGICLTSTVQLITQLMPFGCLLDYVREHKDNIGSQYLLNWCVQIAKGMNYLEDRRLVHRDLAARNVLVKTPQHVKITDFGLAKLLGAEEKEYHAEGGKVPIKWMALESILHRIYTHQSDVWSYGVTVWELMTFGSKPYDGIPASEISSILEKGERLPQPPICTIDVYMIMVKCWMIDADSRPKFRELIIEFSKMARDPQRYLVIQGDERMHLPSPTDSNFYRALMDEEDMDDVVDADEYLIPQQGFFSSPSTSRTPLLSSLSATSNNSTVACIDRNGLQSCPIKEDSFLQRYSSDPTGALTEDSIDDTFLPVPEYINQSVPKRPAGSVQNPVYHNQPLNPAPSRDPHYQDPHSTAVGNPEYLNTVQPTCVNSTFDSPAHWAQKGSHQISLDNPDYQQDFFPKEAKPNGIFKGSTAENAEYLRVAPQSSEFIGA

For `COc1ccc(N(C)c2nc(C)nc3c(Cc4ccccc4)cn(C)c23)cc1` [Compound 4, 7-Benzyl-N-(4-methoxyphenyl)-N,2,5-trimethyl-5H-pyrrolo[3,2-d]pyrimidin-4-amine], at PDGFRβ, the “potency against PDGFRβ, in words” value was “potencies comparable with DMBI”. Besides, the IC50 (commonly the concentration that inhibits the measured activity by half) at PDGFRβ (whole-cell assay, read-out: kinase inhibition IC50 [whole-cell assays] PDGFRβ) turned out to be 10.3 nM; on EGFR, 2.3 ± 0.3 nM. Further, the GI50 (as a rule, the concentration at which growth is held to half of that of the control) with CCRF-CEM worked out at 33.5 nM; in the experiment with HL-60(TB), 26.8 nM; in the experiment with RPMI-8226, 36.9 nM; with SR, 33.8 nM; in the experiment with NCI-H322M, 73.6 nM; with SW-620 it was 38.4 nM. Moreover, the GI50 was 17.7 nM in the experiment on MALME-3M; 269 nM in the experiment with OVCAR-5; 32.8 nM in the experiment on NCI/ADR-RES; 172 nM in the experiment on ACHN; 63.7 nM with MDA-MB-231/ATCC; 30.1 nM in the experiment on MDA-MB-468.
